Results reported in patent publication US10526316B2, “Quinoxaline and pyridopyrazine derivatives as PI3Kβ inhibitors” (Janssen Pharmaceutica NV, priority 2015, dated 2020).
pIC50, pKd: −log10 of the molar value. Where two headings read alike, the source gives them in different places.

What was measured:
[1] = tested on: Akt phosphorylated at Ser473 in PC-3 cells; test: Cellular assay: phosphorylation of Akt at Ser473 in PC-3 cells (MSD ELISA); format: cell-based; conditions: PC-3 cells, 60 min compound incubation, MSD ELISA, read-out: IC50 pAkt_S473
Outline: (§1)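 PC-3 cells were exposed to compound or 0.3% DMSO for 60 min at 37° C, 5% CO2, then lysed in ice-cold buffer. Phospho-Akt was captured on site-specific antibody-coated plates and detected with Sulfo-tag anti-total Akt by electrochemiluminescence. IC50 values came from five-concentration response curves.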

[2] = target: T1, PI3Kδ (Homo sapiens, UniProt O00329); test: Enzyme binding assay (KINOMEscan, DiscoveRx); conditions: PIK3Cδ_h
T1 construct: purchased DiscoveRx Corporation, San Diego (contract service, KINOMEscan)
T1 sequence (O00329 1-1044): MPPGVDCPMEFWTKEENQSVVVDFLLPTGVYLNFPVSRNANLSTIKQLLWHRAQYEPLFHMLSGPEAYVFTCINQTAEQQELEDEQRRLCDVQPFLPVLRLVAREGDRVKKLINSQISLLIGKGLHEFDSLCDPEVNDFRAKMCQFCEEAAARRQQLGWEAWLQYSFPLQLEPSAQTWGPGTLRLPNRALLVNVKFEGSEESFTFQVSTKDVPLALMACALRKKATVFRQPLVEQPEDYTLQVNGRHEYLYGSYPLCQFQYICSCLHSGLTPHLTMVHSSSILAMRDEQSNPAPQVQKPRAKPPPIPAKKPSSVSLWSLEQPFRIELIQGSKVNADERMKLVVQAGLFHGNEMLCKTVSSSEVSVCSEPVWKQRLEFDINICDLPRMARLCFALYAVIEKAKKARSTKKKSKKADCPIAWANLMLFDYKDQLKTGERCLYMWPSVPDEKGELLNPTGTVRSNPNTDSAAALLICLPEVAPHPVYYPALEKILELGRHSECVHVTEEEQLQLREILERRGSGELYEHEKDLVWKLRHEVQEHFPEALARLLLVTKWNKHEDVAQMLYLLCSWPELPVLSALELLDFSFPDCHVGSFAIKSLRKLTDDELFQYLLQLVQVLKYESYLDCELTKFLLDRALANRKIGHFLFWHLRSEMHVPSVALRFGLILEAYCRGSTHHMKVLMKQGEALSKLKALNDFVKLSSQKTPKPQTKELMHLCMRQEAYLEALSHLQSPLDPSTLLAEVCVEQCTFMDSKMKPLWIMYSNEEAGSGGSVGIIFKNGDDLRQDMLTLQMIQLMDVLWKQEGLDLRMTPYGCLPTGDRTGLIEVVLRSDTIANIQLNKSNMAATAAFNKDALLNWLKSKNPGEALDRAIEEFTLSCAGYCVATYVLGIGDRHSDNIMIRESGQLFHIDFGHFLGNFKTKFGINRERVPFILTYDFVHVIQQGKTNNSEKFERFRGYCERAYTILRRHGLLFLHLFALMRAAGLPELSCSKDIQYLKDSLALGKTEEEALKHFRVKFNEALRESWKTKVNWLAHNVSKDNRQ
Outline: (§2)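 Affinity for each kinase was determined by KINOMEscan profiling.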

[3] = tested on: Akt phosphorylated at Thr308 in PC-3 cells; test: Cellular assay: phosphorylation of Akt at Thr308 in PC-3 cells (MSD ELISA); format: cell-based; conditions: PC-3 cells, 60 min compound incubation, MSD ELISA, read-out: IC50 pAkt_Thr308
Outline: as §1

[4] = target: T2, PI3Kβ (Homo sapiens, UniProt P42338); test: Enzyme binding assay (KINOMEscan, DiscoveRx); conditions: PIK3Cβ_h, read-out: Kd PIK3Cβ_h
T2 construct: purchased DiscoveRx Corporation, San Diego (contract service, KINOMEscan)
T2 sequence (P42338 whole entry): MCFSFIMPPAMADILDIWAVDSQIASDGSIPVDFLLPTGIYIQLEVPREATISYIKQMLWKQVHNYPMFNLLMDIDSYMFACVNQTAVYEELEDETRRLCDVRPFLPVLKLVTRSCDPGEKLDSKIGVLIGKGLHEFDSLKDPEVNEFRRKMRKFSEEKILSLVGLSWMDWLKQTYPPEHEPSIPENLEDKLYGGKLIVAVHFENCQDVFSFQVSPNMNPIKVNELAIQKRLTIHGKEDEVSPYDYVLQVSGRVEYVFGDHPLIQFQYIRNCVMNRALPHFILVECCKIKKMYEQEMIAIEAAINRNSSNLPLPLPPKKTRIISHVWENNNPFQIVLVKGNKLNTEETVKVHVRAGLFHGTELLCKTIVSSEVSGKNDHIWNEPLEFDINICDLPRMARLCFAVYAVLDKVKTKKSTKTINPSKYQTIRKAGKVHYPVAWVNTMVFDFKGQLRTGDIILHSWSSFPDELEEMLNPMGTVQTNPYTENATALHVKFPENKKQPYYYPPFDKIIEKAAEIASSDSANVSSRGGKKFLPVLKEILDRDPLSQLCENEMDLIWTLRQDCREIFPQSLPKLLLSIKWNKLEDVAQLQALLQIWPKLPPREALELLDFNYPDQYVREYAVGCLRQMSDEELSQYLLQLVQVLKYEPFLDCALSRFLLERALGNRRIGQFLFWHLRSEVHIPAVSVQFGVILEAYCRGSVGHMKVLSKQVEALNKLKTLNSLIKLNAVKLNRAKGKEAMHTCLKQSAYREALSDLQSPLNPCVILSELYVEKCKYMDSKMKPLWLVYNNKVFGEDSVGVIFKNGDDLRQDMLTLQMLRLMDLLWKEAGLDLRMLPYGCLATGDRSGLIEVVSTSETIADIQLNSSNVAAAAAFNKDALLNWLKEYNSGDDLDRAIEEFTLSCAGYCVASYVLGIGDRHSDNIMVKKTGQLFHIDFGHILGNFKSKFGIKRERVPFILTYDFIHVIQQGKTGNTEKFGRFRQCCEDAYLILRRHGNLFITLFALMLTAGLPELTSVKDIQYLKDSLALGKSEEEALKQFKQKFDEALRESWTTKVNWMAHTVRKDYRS
Outline: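 Values are Kd in nM, the binding constant of each inhibitor for the kinase, obtained from a KINOMEscan enzyme binding assay.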

[5] = target: T3, kinase enzymes (Homo sapiens, UniProt P42336); test: Enzyme binding assay (KINOMEscan, DiscoveRx), further kinases of Table A; conditions: PIK3Cα_h
T3 construct: purchased DiscoveRx Corporation, San Diego (contract service, KINOMEscan)
T3 sequence (P42336 whole entry): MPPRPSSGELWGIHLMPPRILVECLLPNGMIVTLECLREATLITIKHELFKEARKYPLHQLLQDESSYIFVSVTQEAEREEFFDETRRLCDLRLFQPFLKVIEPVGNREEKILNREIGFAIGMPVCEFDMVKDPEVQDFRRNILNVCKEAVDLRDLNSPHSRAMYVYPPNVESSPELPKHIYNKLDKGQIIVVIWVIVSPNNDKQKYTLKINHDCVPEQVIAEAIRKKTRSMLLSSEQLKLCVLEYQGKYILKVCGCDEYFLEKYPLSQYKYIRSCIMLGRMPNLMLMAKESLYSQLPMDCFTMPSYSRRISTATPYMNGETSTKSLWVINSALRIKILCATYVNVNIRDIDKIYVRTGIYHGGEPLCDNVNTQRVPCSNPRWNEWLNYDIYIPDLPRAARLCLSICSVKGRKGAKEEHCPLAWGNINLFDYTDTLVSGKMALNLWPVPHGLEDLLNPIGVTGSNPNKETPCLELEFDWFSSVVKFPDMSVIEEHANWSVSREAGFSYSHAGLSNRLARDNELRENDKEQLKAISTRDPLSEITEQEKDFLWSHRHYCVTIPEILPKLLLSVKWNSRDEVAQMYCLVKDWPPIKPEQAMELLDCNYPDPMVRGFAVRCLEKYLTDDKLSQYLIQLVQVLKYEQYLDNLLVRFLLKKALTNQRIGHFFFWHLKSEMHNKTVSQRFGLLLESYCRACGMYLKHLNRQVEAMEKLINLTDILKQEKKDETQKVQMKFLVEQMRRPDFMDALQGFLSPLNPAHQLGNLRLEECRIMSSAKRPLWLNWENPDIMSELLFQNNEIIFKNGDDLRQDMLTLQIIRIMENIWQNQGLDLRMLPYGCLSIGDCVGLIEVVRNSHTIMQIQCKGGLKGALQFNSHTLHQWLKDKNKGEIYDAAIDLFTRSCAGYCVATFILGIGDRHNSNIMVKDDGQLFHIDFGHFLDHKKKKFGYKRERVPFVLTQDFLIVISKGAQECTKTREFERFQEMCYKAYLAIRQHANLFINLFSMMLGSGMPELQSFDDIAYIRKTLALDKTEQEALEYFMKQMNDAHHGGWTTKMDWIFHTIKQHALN
Outline: as §2

[6] = target: T4, kinase enzymes (Homo sapiens, UniProt P42345); test: as above; conditions: MTOR_h
T4 construct: purchased DiscoveRx Corporation, San Diego (contract service, KINOMEscan)
Outline: as §2

[7] = target: T5, kinase enzymes (Homo sapiens, UniProt P48736); test: as above; conditions: PIK3Cγ_h
T5 construct: purchased DiscoveRx Corporation, San Diego (contract service, KINOMEscan)
T5 sequence (P48736 whole entry): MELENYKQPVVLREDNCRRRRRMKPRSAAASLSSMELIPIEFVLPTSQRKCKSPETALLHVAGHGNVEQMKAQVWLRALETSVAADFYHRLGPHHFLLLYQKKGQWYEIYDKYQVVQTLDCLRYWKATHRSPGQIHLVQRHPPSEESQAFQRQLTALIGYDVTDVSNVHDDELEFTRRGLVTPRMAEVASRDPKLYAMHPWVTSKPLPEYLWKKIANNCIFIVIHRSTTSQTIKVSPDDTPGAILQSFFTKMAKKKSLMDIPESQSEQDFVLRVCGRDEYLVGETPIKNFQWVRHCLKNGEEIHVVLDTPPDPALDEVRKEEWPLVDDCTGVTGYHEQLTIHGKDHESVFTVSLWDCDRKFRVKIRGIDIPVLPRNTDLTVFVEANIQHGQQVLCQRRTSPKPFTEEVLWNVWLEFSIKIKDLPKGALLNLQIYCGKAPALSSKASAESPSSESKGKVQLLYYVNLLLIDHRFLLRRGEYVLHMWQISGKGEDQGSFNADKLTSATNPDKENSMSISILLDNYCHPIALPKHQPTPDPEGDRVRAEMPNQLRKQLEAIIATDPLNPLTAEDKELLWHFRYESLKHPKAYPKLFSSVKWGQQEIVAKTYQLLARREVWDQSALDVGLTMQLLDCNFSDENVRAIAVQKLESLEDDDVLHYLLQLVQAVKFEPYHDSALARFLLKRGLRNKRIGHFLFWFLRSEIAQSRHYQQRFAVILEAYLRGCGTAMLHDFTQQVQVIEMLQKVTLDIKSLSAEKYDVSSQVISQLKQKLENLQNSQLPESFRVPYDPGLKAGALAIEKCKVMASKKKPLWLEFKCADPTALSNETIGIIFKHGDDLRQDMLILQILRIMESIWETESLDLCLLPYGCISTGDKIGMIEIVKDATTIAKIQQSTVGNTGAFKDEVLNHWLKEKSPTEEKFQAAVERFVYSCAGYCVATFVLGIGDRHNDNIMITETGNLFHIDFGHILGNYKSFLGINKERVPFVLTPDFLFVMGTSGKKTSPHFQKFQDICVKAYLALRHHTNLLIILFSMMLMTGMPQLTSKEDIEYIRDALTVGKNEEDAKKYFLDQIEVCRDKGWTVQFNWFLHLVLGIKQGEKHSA
Outline: as §2

| Structure (SMILES) | pIC50 [1] | melting point [°C] | pKd [2] | pIC50 [3] | pKd [4] | pKd [5] | pKd [6] | pKd [7] | pIC50 ([1]; Homo sapiens, PC-3, 1 h) | pIC50 ([3]; Homo sapiens, PC-3, 1 h) |
| --- | --- | --- | --- | --- | --- | --- | --- | --- | --- | --- |
| CN[C@H]1CCN(C(=O)c2cc(C(C)Oc3ccc(F)c(F)c3)c3nc(N4CCOCC4)cnc3c2)C1 (single isomer, unassigned) [Compound 370a] | 6.97 | 128 | 6.97 | 7.40 | 9.52 | 5.91 | < 4.52 | 5.58 | – | – |
| CN[C@H]1CCN(C(=O)c2cc(C(C)Oc3ccc(F)c(F)c3)c3nc(N4CCOCC4)cnc3c2)C1 (single isomer, unassigned) [Compound 370b] | < 6.29 | 80 | 4.81 | < 6.29 | 6.26 | < 4.52 | < 4.52 | < 4.52 | – | – |
| CN[C@@H]1CCN(C(=O)c2cc(C(C)Nc3ccc(F)c(F)c3)c3nc(N4CCOCC4)cnc3c2)C1 (single isomer, unassigned) [Compound 371a] | 8.00 | 114 | 7.08 | 8.70 | 9.52 | 5.82 | < 4.52 | 5.98 | – | – |
| CN[C@@H]1CCN(C(=O)c2cc(C(C)Nc3ccc(F)c(F)c3)c3nc(N4CCOCC4)cnc3c2)C1 (single isomer, unassigned) [Compound 371b] | < 6.29 | 107 | 5.30 | 6.60 | 7.70 | 4.90 | < 4.52 | 4.96 | – | – |
| CC(Nc1ccc(F)c(F)c1)c1cc(C(=O)N[C@H]2CCNC2)cc2ncc(N3CCOCC3)nc12 (single isomer, unassigned) [Compound 374a] | 7.49 | 132 | 6.85 | 7.77 | 9.52 | 5.61 | < 4.52 | 5.23 | – | – |
| CC(Nc1ccc(F)c(F)c1)c1cc(C(=O)N[C@H]2CCNC2)cc2ncc(N3CCOCC3)nc12 (single isomer, unassigned) [Compound 374b] | < 6.29 | 130 | 5.24 | < 6.29 | 7.01 | 4.87 | < 4.52 | 4.66 | – | – |
| CC(Nc1cccc(F)c1)c1cc(C(=O)NCC(=O)O)cc2ncc(N3CCOCC3)nc12 (single isomer, unassigned) [Compound 393a] | – | 115 | 5.91 | – | 7.96 | 6.36 | 5.17 | 5.86 | < 6.29 | < 6.29 |
| CC(Nc1cccc(F)c1)c1cc(C(=O)NCC(=O)O)cc2ncc(N3CCOCC3)nc12 (single isomer, unassigned) [Compound 393b] | < 6.29 | 196 | 4.59 | < 6.29 | 5.64 | 4.96 | 4.80 | 5.18 | – | – |
| CN(C)C(=O)c1cc(N2CCCC2c2cc(F)cc(F)c2)c2nc(N3CCOCC3)cnc2c1 (single isomer, unassigned) [Compound 395a] | – | 90 | 5.90 | – | 7.48 | 5.46 | < 4.52 | 4.75 | < 6.29 | < 6.29 |
| CN(C)C(=O)c1cc(N2CCCC2c2cc(F)cc(F)c2)c2nc(N3CCOCC3)cnc2c1 (single isomer, unassigned) [Compound 395b] | < 6.29 | 102 | 5.45 | < 6.29 | 6.20 | 5.40 | 4.73 | 4.49 | – | – |
| CN(C)C(=O)c1cc(N2CCC2c2ccc(F)cc2)c2nc(N3CCOCC3)cnc2c1 (single isomer, unassigned) [Compound 397a] | – | 80 | 4.97 | – | 5.85 | 5.44 | 4.81 | 4.60 | < 6.29 | < 6.29 |
| CC(Oc1cc(F)cc(F)c1)c1cc(C(=O)N(C)C)cc2ncc(C3=CCOCC3)nc12 (single isomer, unassigned) [Compound 403a] | – | 53 | 6.48 | ~6.88 | 8.52 | 5.83 | < 4.52 | 5.05 | ~6.56 | – |
| CC(Oc1cc(F)cc(F)c1)c1cc(C(=O)N(C)C)cc2ncc(C3=CCOCC3)nc12 (single isomer, unassigned) [Compound 403b] | < 6.29 | 54 | 4.76 | < 6.29 | 5.50 | < 4.52 | < 4.52 | < 4.52 | – | – |
| CNCCNC(=O)c1cc(C(C)Nc2cc(F)cc(F)c2)c2nc(N3CCOCC3)cnc2c1 (single isomer, unassigned) [Compound 406a] | 8.10 | 80 | 7.41 | 8.40 | 10.00 | 6.43 | 4.64 | 5.98 | – | – |
| OCc1cc(C2CCCN2c2cc(F)cc(F)c2)c2nc(N3CCOCC3)cnc2c1 (stereo not drawn) [Compound 10] | – | 189 | 7.13 | – | 9.30 | 6.85 | < 4.52 | 6.47 | 8.40 | 8.52 |
| CC(Nc1cc(F)cc(F)c1)c1cc(C(=O)N(C)C)cc2ncc(N3CCOCC3)nc12 (stereo not drawn) [Compound 11] | – | 228 | 6.56 | – | 9.00 | 6.20 | < 4.52 | 5.60 | 7.09 | 7.38 |
| OCCNCc1cc(C2CCCN2c2cc(F)cc(F)c2)c2nc(N3CCOCC3)cnc2c1 (stereo not drawn) [Compound 14] | – | 140 | 7.44 | – | 9.70 | 6.76 | < 5.00 | 6.64 | 7.51 | 7.96 |
| CC(O)c1cc(C2CCCN2c2cc(F)cc(F)c2)c2nc(N3CCOCC3)cnc2c1 (stereo not drawn) [Compound 16] | – | 80 | 7.80 | – | 9.00 | 7.03 | 4.77 | 6.90 | ~8.30 | 8.70 |
| CNCC(O)c1cc(C2CCCN2c2cc(F)cc(F)c2)c2nc(N3CCOCC3)cnc2c1 (stereo not drawn) [Compound 19] | – | 80 | 7.54 | – | 9.70 | 6.44 | 4.74 | 6.51 | 7.82 | 8.00 |
| CCN(c1cccc(F)c1)C(C)c1cc(C(=O)N2CCOCC2)cc2ncc(N3CCOCC3)nc12 (stereo not drawn) [Compound 20] | – | 80 | 5.81 | – | 7.77 | 5.44 | 4.66 | 4.65 | 6.44 | 6.43 |
| CN(C)C(=O)c1cc(C2CCCN2c2ccccc2)c2nc(N3CCOCC3)cnc2c1 (stereo not drawn) [Compound 27] | – | 80 | 7.24 | – | 9.00 | 6.57 | < 4.52 | 5.79 | 7.66 | 7.85 |
